# From patent publication US6372781B1, “Compounds for treating gastroduodenal diseases” (Pfizer Inc., priority 1994, dated 2002)
# What was measured:
# [1] = system: Ophiostoma ulmi; conditions: against Ophiostoma ulmi; cited from earlier work
# [2] = system: Botrytis cinerea; conditions: against Botrytis cinerea; cited from earlier work
# [3] = system: Helicobacter pylori; experiment: in vitro screen against Helicobacter pylori (agar dilution / microdilution broth MIC); assay type: cell-based
# [4] = system: Escherichia coli; conditions: against Escherichia coli; cited from earlier work
# [5] = system: Bacillus subtilis; conditions: against Bacillus subtilis; cited from earlier work
# [6] = system: Bacillus cereus; conditions: against Bacillus cereus; cited from earlier work
# [7] = system: Aspergillus niger; conditions: against Aspergillus niger; cited from earlier work
# [8] = system: Cladosporium cucumerinum; conditions: against Cladosporium cucumerinum; cited from earlier work
# [9] = system: Saccharomyces cerevisiae; conditions: against Saccharomyces cerevisiae; cited from earlier work
# [10] = system: Helicobacter pylori; conditions: cited from earlier work
Molecule,antifungal activity [1],antifungal activity [2],helicobactericidal activity (kills Helicobacter pylori) [3],bacteriostatic activity [4],bacteriostatic activity [5],bacteriostatic activity [6],antifungal activity [7],antifungal activity [8],antifungal activity [9],helicobactericidal activity [10]
COc1cc(O)cc2c1C(=O)OC2CCCCCC1CCCC2(CCC(C)O2)O1 (stereo not shown) [spirolaxine],no antifungal activity,no antifungal activity,potent helicobactericidal,weak bacteriostatic activity,weak bacteriostatic activity,weak bacteriostatic activity,no antifungal activity,no antifungal activity,no antifungal activity,
colloidal bismuth subcitrate,,,,,,,,,,helicobactericidal
